In US8524718B2, “Heteroaromatic derivatives and their use as positive allosteric modulators of metabotropic glutamate receptors” (Addex Pharma S.A., priority 2007, dated 2013):

Compound	melting point
Cc1sc(Nc2cccc(F)n2)nc1-c1cnn(C(N)=O)c1	230 °C (dec.)
Cc1n[nH]cc1-c1nc(Nc2ccccn2)sc1C [Compound 1-15, 5-Methyl-4-(3-methyl-1H-pyrazol-4-yl)-N-(pyridin-2-yl)thiazol-2-amine]	218 °C
Cc1n[nH]cc1-c1csc(Nc2cc(F)ccc2F)n1 [Compound 1-17, N-(2,5-Difluorophenyl)-4-(3-methyl-1H-pyrazol-4-yl)thiazol-2-amine]	196 to 199 °C
Cc1ccnc(Nc2nc(-c3cn[nH]c3)c(C)s2)c1 [Compound 1-19, 5-Methyl-N-(4-methylpyridin-2-yl)-4-(1H-pyrazol-4-yl)thiazol-2-amine]	274 °C
Cc1sc(Nc2ncc(F)cc2F)nc1-c1cn[nH]c1 [Compound 1-20, N-(3,5-Difluoropyridin-2-yl)-5-methyl-4-(1H-pyrazol-4-yl)thiazol-2-amine]	> 300 °C
Cc1ccnc(Nc2nc(-c3c[nH]nc3C)cs2)c1 [Compound 1-21, 4-(3-Methyl-1H-pyrazol-4-yl)-N-(4-methylpyridin-2-yl)thiazol-2-amine]	276 to 278 °C
CCc1sc(Nc2ccccn2)nc1-c1cn[nH]c1 [Compound 1-22, 5-Ethyl-4-(1H-pyrazol-4-yl)-N-(pyridin-2-yl)thiazol-2-amine]	243 to 246 °C
Cc1cccc(Nc2nc(-c3c[nH]nc3C)cs2)n1 [Compound 1-23, 4-(3-Methyl-1H-pyrazol-4-yl)-N-(6-methylpyridin-2-yl)thiazol-2-amine]	295 °C (dec.)
Cc1sc(Nc2ccc(F)cn2)nc1-c1cn[nH]c1 [Compound 1-24, N-(5-Fluoropyridin-2-yl)-5-methyl-4-(1H-pyrazol-4-yl)thiazol-2-amine]	320 °C
Cc1sc(Nc2ccccn2)nc1-c1cnn(C(=O)C(C)C)c1 [Compound 1-26, 2-Methyl-1-(4-(5-methyl-2-(pyridin-2-ylamino)thiazol-4-yl)-1H-pyrazol-1-yl)propan-1-one]	168 °C
Cc1sc(Nc2ccccn2)nc1-c1cnn(C(=O)C2CCCCC2)c1 [Compound 1-28, Cyclohexyl(4-(5-methyl-2-(pyridin-2-ylamino)thiazol-4-yl)-1H-pyrazol-1-yl)methanone]	140 to 144 °C
Cc1sc(NC2CCCCC2)nc1-c1cn[nH]c1 [Compound 1-29, N-Cyclohexyl-5-methyl-4-(1H-pyrazol-4-yl)thiazol-2-amine]	205 to 207 °C
Cc1cccc(Nc2nc(-c3cnn(C(=O)C(C)C)c3)c(C)s2)n1 [Compound 1-30, 2-Methyl-1-(4-(5-methyl-2-(6-methylpyridin-2-ylamino)thiazol-4-yl)-1H-pyrazol-1-yl)propan-1-one]	159 to 160 °C
Cc1sc(Nc2ccccn2)nc1-c1cnn(C(=O)N2CCCCC2)c1 [Compound 1-34, (4-(5-Methyl-2-(pyridin-2-ylamino)thiazol-4-yl)-1H-pyrazol-1-yl)(piperidin-1-yl)methanone]	137 to 138 °C
c1ccc(Nc2nc(-c3cn[nH]c3)ns2)nc1 [Compound 1-35, 3-(1H-Pyrazol-4-yl)-N-(pyridin-2-yl)-1,2,4-thiadiazol-5-amine]	300 °C (dec.)
CC(C)C(=O)n1cc(-c2nsc(Nc3ccccn3)n2)cn1 [Compound 1-36, 2-Methyl-1-(4-(5-(pyridin-2-ylamino)-1,2,4-thiadiazol-3-yl)-1H-pyrazol-1-yl)propan-1-one]	248 to 254 °C
Cc1sc(NC2CCCC2)nc1-c1cn[nH]c1 [Compound 1-37, N-Cyclopentyl-5-methyl-4-(1H-pyrazol-4-yl)thiazol-2-amine]	197 °C
Cc1cccc(Nc2nc(-c3cn[nH]c3)ns2)n1 [Compound 1-38, N-(6-Methylpyridin-2-yl)-3-(1H-pyrazol-4-yl)-1,2,4-thiadiazol-5-amine]	276 °C
Cc1sc(Nc2cnccn2)nc1-c1cn[nH]c1 [Compound 1-39, 5-Methyl-N-(pyrazin-2-yl)-4-(1H-pyrazol-4-yl)thiazol-2-amine]	252 °C
Cc1cccc(Nc2nc(-c3c[nH]nc3C)ns2)n1 [Compound 1-40, 3-(3-Methyl-1H-pyrazol-4-yl)-N-(6-methylpyridin-2-yl)-1,2,4-thiadiazol-5-amine]	> 300 °C
Cc1n[nH]cc1-c1nsc(Nc2cccc(Cl)n2)n1 [Compound 1-41, N-(6-Chloropyridin-2-yl)-3-(3-methyl-1H-pyrazol-4-yl)-1,2,4-thiadiazol-5-amine]	285 °C (dec.)
Clc1cccc(Nc2nc(-c3cn[nH]c3)ns2)n1 [Compound 1-42, N-(6-Chloropyridin-2-yl)-3-(1H-pyrazol-4-yl)-1,2,4-thiadiazol-5-amine]	317 to 319 °C
Cc1n[nH]cc1-c1nsc(Nc2ncc(F)cc2F)n1 [Compound 1-44, N-(3,5-Difluoropyridin-2-yl)-3-(3-methyl-1H-pyrazol-4-yl)-1,2,4-thiadiazol-5-amine]	> 300 °C
Cc1sc(Nc2ccccn2)nc1-c1cnn(S(C)(=O)=O)c1 [Compound 1-45, 5-Methyl-4-(1-(methylsulfonyl)-1H-pyrazol-4-yl)-N-(pyridin-2-yl)thiazol-2-amine]	193 °C
CCc1cccc(Nc2nc(-c3cn[nH]c3)c(C)s2)n1 [Compound 1-48, N-(6-Ethylpyridin-2-yl)-5-methyl-4-(1H-pyrazol-4-yl)thiazol-2-amine]	276 to 278 °C
Cc1sc(Nc2ccccn2)nc1-c1cnn(C(=O)NC(C)C)c1 [Compound 1-50, N-Isopropyl-4-(5-methyl-2-(pyridin-2-ylamino)thiazol-4-yl)-1H-pyrazole-1-carboxamide]	297 to 298 °C
Cc1cccc(Nc2nc(-c3cn[nH]c3)c(Cl)s2)n1 [Compound 1-52, 5-Chloro-N-(6-methylpyridin-2-yl)-4-(1H-pyrazol-4-yl)thiazol-2-amine]	278 to 282 °C
OCc1sc(Nc2ccccn2)nc1-c1cn[nH]c1 [Compound 1-57, (4-(1H-Pyrazol-4-yl)-2-(pyridin-2-ylamino)thiazol-5-yl)methanol]	250 °C (dec.)
Cc1sc(Nc2ccccn2)nc1-c1cnn(C(=O)NC2CC2)c1 [Compound 1-59, N-Cyclopropyl-4-(5-methyl-2-(pyridin-2-ylamino)thiazol-4-yl)-1H-pyrazole-1-carboxamide]	270 °C (dec.)
Fc1ccc(F)c(Nc2cccc(-c3cn[nH]c3)n2)c1 [Compound 2-1, N-(2,5-Difluorophenyl)-6-(1H-pyrazol-4-yl)pyridin-2-amine]	198 to 199 °C
